In this experiment the test system is vancomycin-intermediate Staphylococcus aureus (VISA). Description: Broth microdilution MIC (Example 12). Background: In broth dilution the organism is exposed to a series of concentrations in liquid medium.

We go through three compounds from patent publication US11464749B2, “Bismuth-thiol compositions and methods of use” (Microbion Corporation, priority 2018, dated 2022).

Molecules are shown by their SMILES. Values after ≈ are worked out from the molar mass of the structure shown. Bounds are passed on as bounds.

One may read the MIC as the smallest concentration in the dilution series that meets the test's criterion for growth inhibition. A low value points to a more susceptible organism. `CN[C@H](CC(C)C)C(=O)N[C@H]1C(=O)N[C@@H](CC(N)=O)C(=O)N[C@H]2C(=O)N[C@H]3C(=O)N[C@H](C(=O)N[C@H](C(=O)O)c4cc(O)cc(O)c4-c4cc3ccc4O)[C@H](O)c3ccc(c(Cl)c3)Oc3cc2cc(c3O[C@@H]2O[C@H](CO)[C@@H](O)[C@H](O)[C@H]2O[C@H]2C[C@](C)(N)[C@H](O)[C@H](C)O2)Oc2ccc(cc2Cl)[C@H]1O` [VAN] showed an MIC (S. aureus NRS 1 (hVISA)) of 4 µg/mL (≈ 2.76 µM); an MIC (S. aureus NRS 2) of 0.5 µg/mL (≈ 0.345 µM); an MIC (S. aureus NRS 3) of 8 µg/mL (≈ 5.52 µM); an MIC (S. aureus NRS 4) of 4 µg/mL (≈ 2.76 µM); a minimum inhibitory concentration (MIC) (S. aureus NRS 13) of 2 µg/mL (≈ 1.38 µM); an MIC (S. aureus NRS 18) of 4 µg/mL (≈ 2.76 µM). Also, the MIC is, setting by setting: (S. aureus NRS 22) 4 µg/mL (≈ 2.76 µM); (S. aureus NRS 24 (hVISA)) 2 µg/mL (≈ 1.38 µM); (S. aureus NRS 27) 2 µg/mL (≈ 1.38 µM).
`CCC[C@@H]1C[C@@H](C(=O)N[C@@H]([C@H]2O[C@H](SC)[C@H](O)[C@@H](O)[C@H]2O)[C@H](C)Cl)N(C)C1` [CLI]: the MIC is more than 8 µg/mL (S. aureus NRS 1 (hVISA)); more than 8 µg/mL (S. aureus NRS 2); more than 8 µg/mL (S. aureus NRS 3); more than 8 µg/mL (S. aureus NRS 4); 0.06 µg/mL (≈ 0.141 µM) (S. aureus NRS 13); more than 8 µg/mL (S. aureus NRS 18). In addition, the MIC runs as follows: (S. aureus NRS 22) more than 8 µg/mL; (S. aureus NRS 24 (hVISA)) more than 8 µg/mL; (S. aureus NRS 27) more than 8 µg/mL.
Regarding `CC(=O)NC[C@H]1CN(c2ccc(N3CCOCC3)c(F)c2)C(=O)O1` [LZD], the MIC is 1 µg/mL (≈ 2.96 µM) (S. aureus NRS 1 (hVISA)); 4 µg/mL (≈ 11.9 µM) (S. aureus NRS 2); 1 µg/mL (≈ 2.96 µM) (S. aureus NRS 3); 1 µg/mL (≈ 2.96 µM) (S. aureus NRS 4); 2 µg/mL (≈ 5.93 µM) (S. aureus NRS 13); 1 µg/mL (≈ 2.96 µM) (S. aureus NRS 18). Also, the MIC turned out to be 1 µg/mL (≈ 2.96 µM) (S. aureus NRS 22), 2 µg/mL (≈ 5.93 µM) (S. aureus NRS 24 (hVISA)) and 2 µg/mL (≈ 5.93 µM) (S. aureus NRS 27).
